Laboratory results reported in publication PMC8633584, “Patient mutations in human ATP:cob(I)alamin adenosyltransferase differentially affect its catalytic versus chaperone functions” (The Journal of Biological Chemistry, 2021).
Positions count from the first letter of the chain named.

Key:
R190C ATR [1] = target: T1, R190C ATR (Homo sapiens, UniProt Q96EY8, R190C); conditions: 1.1:1.0:1.0 R190C ATR:AdoCbl:PPPi
T1 sequence (Q96EY8 38-250 R190C limits assumed): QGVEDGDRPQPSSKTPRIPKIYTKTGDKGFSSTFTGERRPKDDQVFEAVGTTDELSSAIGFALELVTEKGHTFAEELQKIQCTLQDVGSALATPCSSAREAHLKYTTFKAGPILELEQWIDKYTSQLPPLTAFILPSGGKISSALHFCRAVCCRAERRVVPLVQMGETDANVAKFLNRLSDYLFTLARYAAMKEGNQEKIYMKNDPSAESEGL
Procedure: (§1) The samples were prepared in an anaerobic chamber and contained: PPPi (1 mM), WT, R190C or E193K ATR (1.1 mM active sites), MgCl2 (2 mM), AdoCbl (1 mM) in 50 mM Hepes buffer pH 7.5 containing 150 mM KCl and 2 mM DTT at room temperature. The samples were transferred to 5-mm (internal diameter) NMR tubes (Wilmad-Glass), and the final volume was brought up to 0.4 ml with 90% water and 10% D2O (Cambridge Isotope Labs).
(§2) […] NMR spectra were collected at 242.5 MHz on a Bruker AVANCE NEO spectrometer equipped with a prodigy cryoprobe locked to D2O. All the NMR experiments were carried out at 25 °C using 12 μs 90° pulse widths, 8192 data points, and 4096 scans with 0.8 s recycle time. The chemical shifts were reported on proton-decoupled spectra by Gaussian line fits to the singlet resonances, relative to an external standard of 85% H3P0_4.

WT ATR [2] = target: T2, WT ATR (Homo sapiens, UniProt Q96EY8); conditions: WT ATR 1.1 mM active sites, PPPi 1 mM, no AdoCbl
T2 sequence (Q96EY8 38-250 limits assumed): T1 sequence (Q96EY8 38-250 R190C limits assumed) with C153R
Procedure: as §1, §2

E193K ATR [3] = target: T3, E193K ATR (Homo sapiens, UniProt Q96EY8, E193K); conditions: 1.1:1.0:1.0 E193K ATR:AdoCbl:PPPi
T3 sequence (Q96EY8 38-250 E193K limits assumed): T1 sequence (Q96EY8 38-250 R190C limits assumed) with C153R, E156K
Procedure: as §1, §2

R190H ATR [4] = target: T4, R190H ATR (Homo sapiens, UniProt Q96EY8, R190H); assay: AdoCbl synthesis, steady-state kinetics; format: biochemical
T4 construct: The expression construct for recombinant human full-length and ΔN18 ATR in a pET-28b vector; His-tag (thrombin-cleavable) (N, cleaved yes); made in house; host or cells: E. coli BL21 (DE3)
T4 sequence (Q96EY8 38-250 R190H limits assumed): T1 sequence (Q96EY8 38-250 R190C limits assumed) with C153H
Procedure: (§3) AdoCbl synthesis was determined by mixing cob(II)alamin (40 μM) in buffer A at 20 °C with ∼10 equivalents of titanium citrate under strictly anaerobic conditions. The reaction was started by addition of ATP (1 mM) and ATR (1 μM trimer concentration). The concentration of cob(I)alamin formed by reduction of cob(II)alamin was estimated using ε386nm = 28.0 cm^−1 mM^−1. The rate of AdoCbl synthesis was determined by measuring the change in absorbance at 522 nm using Δ ε522nm =5.06 mM^−1 cm^−1.

R190C ATR [5] = target: T1, R190C ATR; assay: AdoCbl synthesis, steady-state kinetics; format: biochemical; set-up: The expression construct for recombinant human full-length and ΔN18 ATR in a pET-28b vector; His-tag (thrombin-cleavable) (N, cleaved yes); made in house; host or cells: E. coli BL21 (DE3)
Procedure: as §3

WT ATR [6] = target: T2, WT ATR; assay: AdoCbl synthesis, steady-state kinetics; format: biochemical; set-up: The expression construct for recombinant human full-length and ΔN18 ATR in a pET-28b vector; His-tag (thrombin-cleavable) (N, cleaved yes); made in house; host or cells: E. coli BL21 (DE3)
Procedure: as §3

E193K ATR [7] = target: T3, E193K ATR; assay: AdoCbl synthesis, steady-state kinetics; format: biochemical; set-up: WT and the R190C variants of ΔN18-ATR and full-length E193K ATR were purified; His-tag (thrombin-cleavable) (N, cleaved yes); made in house; host or cells: E. coli BL21 (DE3)
Procedure: as §3

R190C ATR [8] = target: T1, R190C ATR; assay: AdoCbl binding to ATR, UV-visible titration; set-up: The expression construct for recombinant human full-length and ΔN18 ATR in a pET-28b vector; His-tag (thrombin-cleavable) (N, cleaved yes); made in house; host or cells: E. coli BL21 (DE3)
Procedure: (§4) Unless noted otherwise, all titration experiments were performed in buffer A. AdoCbl binding was monitored by adding increasing concentrations of WT or mutant ATR to 30 μM AdoCbl in buffer A at 20 °C. The spectrum was recorded 5 min after each addition. The concentration of bound AdoCbl was determined using […] = 8.0 cm^−1 mM^−1. The change in absorbance at 455 nm (corresponding to base-off AdoCbl bound to ATR) was plotted versus ATR concentration and fitted using the Dynafit software (BioKin) ([35]). Equation 1 (where A is the absorbance at 455 nm following each aliquot of ATR, ΔAmax is the maximal change in absorbance at 455 nm upon binding of AdoCbl to ATR, [E]t is the concentration of ATR active sites, and [L]t is the total AdoCbl concentration) was used to determine the dissociation constant for AdoCbl.(1) A=ΔAmax×([E]t+[L]t+Kd)+([E]t+[L]t+Kd)^2−4[L]t[E]t/2[L]t
(§5) The effect of PPPi on the KD for AdoCbl was determined by performing the above titration in the presence of 1 mM PPPi under anaerobic conditions.

WT ATR [9] = target: T2, WT ATR; assay: AdoCbl binding to ATR, UV-visible titration; set-up: The expression construct for recombinant human full-length and ΔN18 ATR in a pET-28b vector; His-tag (thrombin-cleavable) (N, cleaved yes); made in house; host or cells: E. coli BL21 (DE3)
Procedure: as §4, §5

E193K ATR [10] = target: T3, E193K ATR; assay: AdoCbl binding to ATR, UV-visible titration; set-up: WT and the R190C variants of ΔN18-ATR and full-length E193K ATR were purified; His-tag (thrombin-cleavable) (N, cleaved yes); made in house; host or cells: E. coli BL21 (DE3)
Procedure: as §4, §5

R190H ATR [11] = target: T4, R190H ATR; assay: AdoCbl binding to ATR, UV-visible titration
Procedure: as §4, §5

With `O=P(O)(O)OP(=O)(O)OP(=O)(O)O` [PPPi, inorganic triphosphate] the “PPPi binding by 31P NMR” value (R190C ATR [1]) was “did not lead to detectable PPPi binding”, the “PPPi binding by 31P NMR” value (WT ATR [2]) was “not bound to the protein” and the “PPPi binding by 31P NMR” value (E193K ATR [3]) was “did not lead to detectable PPPi binding”.
In the case of `Nc1ncnc2c1ncn2[C@@H]1O[C@H](COP(=O)(O)OP(=O)(O)OP(=O)(O)O)[C@@H](O)[C@H]1O` [ATP], the “lower activity (kcat) relative to WT ATR” value (R190H ATR [4]; R190H ATR vs WT) is reported as 115 fold, the kcat (R190H ATR [4]; R190H ATR, AdoCbl synthesis, cob(II)alamin 40 μM, titanium citrate, anaerobic, 20 °C) is reported as 0.0017 ± 0.0017 s⁻¹ and the “increase of KM for ATP relative to WT ATR” value (R190C ATR [5]; R190C ATR vs WT) is reported as 20 fold. For the same compound, the “lower activity (kcat) relative to WT ATR” value (R190C ATR [5]; R190C ATR vs WT) was 16 fold, the kcat (R190C ATR [5]; R190C ATR, AdoCbl synthesis, cob(II)alamin 40 μM, titanium citrate, anaerobic, 20 °C) was 0.012 ± 0.0017 s⁻¹ and the Km (R190C ATR [5]; R190C ATR, read-out: KM (ATP)) was 92 ± 31 µM. The kcat (WT ATR [6]; AdoCbl synthesis, cob(II)alamin 40 μM, titanium citrate, anaerobic, 20 °C) was 0.192 ± 0.0267 s⁻¹, the Km (WT ATR [6]; read-out: KM (ATP)) was 4.5 ± 1.1 µM and the “increase of KM for ATP relative to WT ATR” value (E193K ATR [7]; E193K ATR vs WT) was 52 fold. For the same compound, the kcat (E193K ATR [7]; E193K ATR, AdoCbl synthesis, cob(II)alamin 40 μM, titanium citrate, anaerobic, 20 °C) was 0.18 ± 0.01 s⁻¹ and the Km (E193K ATR [7]; E193K ATR, read-out: KM (ATP)) was 235 ± 16 µM.
`C/C1=C2/[N-][C@H]([C@H](CC(N)=O)[C@@]2(C)CCC(=O)NC[C@@H](C)OP(=O)([O-])O[C@H]2[C@@H](O)[C@@H](n3cnc4cc(C)c(C)cc43)O[C@@H]2CO)[C@]2(C)N=C(/C(C)=C3N=C(/C=C4N=C1[C@@H](CCC(N)=O)C\4(C)C)[C@@H](CCC(N)=O)[C@]\3(C)CC(N)=O)[C@@H](CCC(N)=O)[C@]2(C)CC(N)=O.[CH2-][C@H]1O[C@@H](n2cnc3c(N)ncnc32)[C@H](O)[C@@H]1O.[Co+3]` [AdoCbl, 5′-deoxyadenosylcobalamin] was tested, and the Kd (R190C ATR [8]; 1 mM PPPi, anaerobic) was 4 ± 1 µM, the “lower KD(AdoCbl) in the presence of PPPi” value (R190C ATR [8]; PPPi 1 mM) was 10 fold and the Kd (R190C ATR [8]; without PPPi, buffer A, 20 °C) was 40 ± 6 µM. The Kd (WT ATR [9]; 1 mM PPPi, anaerobic) was 0.2 ± 0.1 µM, the “decrease of KD for AdoCbl by PPPi” value (WT ATR [9]; PPPi 1 mM) was 5 fold and the Kd (WT ATR [9]; without PPPi, buffer A, 20 °C) was 1 ± 0.3 µM. The Kd (E193K ATR [10]; 1 mM PPPi, anaerobic) was 100 ± 20 µM, the “effect of PPPi on KD for AdoCbl” value (E193K ATR [10]; PPPi 1 mM) was “no effect” and the Kd (E193K ATR [10]; without PPPi, buffer A, 20 °C) was 120 ± 30 µM. The Kd (R190H ATR [11]; 1 mM PPPi, anaerobic) was 13 ± 3 µM, the “lower KD(AdoCbl) in the presence of PPPi” value (R190H ATR [11]; PPPi 1 mM) was 3.9 fold and the Kd (R190H ATR [11]; without PPPi, buffer A, 20 °C) was 50 ± 5 µM.
